The target in assay [1] is T1, homomeric α1 GlyR (Homo sapiens, UniProt P23415, S298T).
T1 construct: gene GLRA1; full-length subunit, pcDNA3.1, transient expression in HEK293A; homopentamer; eGFP from separate plasmid
T1 sequence (P23415 29-457 S298T): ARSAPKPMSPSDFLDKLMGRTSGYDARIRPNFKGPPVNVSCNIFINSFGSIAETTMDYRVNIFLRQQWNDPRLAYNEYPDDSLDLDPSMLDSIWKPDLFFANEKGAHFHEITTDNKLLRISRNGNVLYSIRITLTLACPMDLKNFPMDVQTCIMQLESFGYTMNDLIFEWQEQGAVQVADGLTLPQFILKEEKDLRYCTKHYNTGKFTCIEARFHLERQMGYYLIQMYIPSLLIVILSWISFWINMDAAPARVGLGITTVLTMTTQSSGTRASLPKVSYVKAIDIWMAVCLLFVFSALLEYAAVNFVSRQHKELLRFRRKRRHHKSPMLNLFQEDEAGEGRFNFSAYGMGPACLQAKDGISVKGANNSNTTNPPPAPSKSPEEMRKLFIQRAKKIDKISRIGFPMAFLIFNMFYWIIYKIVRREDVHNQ
Briefly: whole-cell patch clamp, U-tube application, Hill fit of peak currents. In kind it is cell-based. An excerpt:
(§1) whole-cell patch clamp, U-tube application, Hill fit of peak currents on homomeric α1 GlyR

Assay [2] concerns the target T2, homomeric α1 GlyR (Homo sapiens, UniProt P23415).
T2 construct: gene GLRA1; full-length subunit, pcDNA3.1, transient expression in HEK293A; homopentamer; eGFP from separate plasmid
T2 sequence (P23415 29-457): T1 sequence (P23415 29-457 S298T) with T270S
The description is as above. In kind it is cell-based.
From the text: as §1

Substitutions are numbered along the chain they refer to.

One may read the EC50 as the midpoint of the concentration-response curve. Read a low EC50 as a more potent agent.

As to `CNCC(=O)O` [sarcosine], the half-maximal effective concentration (EC50) is 23 ± 3 mM on homomeric α1 GlyR [1] and 14 ± 6 mM on homomeric α1 GlyR [2].

The record behind these values is publication PMC7649747, “The startle disease mutation α1S270T predicts shortening of glycinergic synaptic currents” (The Journal of Physiology, 2020).
